Laboratory results reported in EP2792360A1, “(1aR,12bS)-8-cyclohexyl-11-fluoro-N-((1-methylcyclopropyl)sulfonyl)-1a-((3-methyl-3,8-diazabicyclo[3.2.1]oct-8-yl)carbonyl)-1,1a,2,2b-tetrahydrocyclopropa[d]indolo[2,1-a][2]benzazepine-5-carboxamide for use in treating HCV” (IP Gesellschaft für Management mbH, priority 2013, dated 2014).
“Also recorded” adds a separate entry of the source. Where a name gives a salt, the structure may show the parent alone.

Tests used:
[1] = Salt selection screens of Formula V free base (organic solvents, aqueous, concentrated acids; XRPD); format: physicochemical; details: for XRPD post 1 day maturation / XRPD post 4 days maturation: HCl salt screen, HCl 1.1 equivalents
Procedure: Example 8: Salt Selection: Preparation of the hydrochloride salt was performed in the 20 solvents used for the solubility screen in order to select the optimal solvents for the salt screen. Formula V free base (ca. 10 mg) was suspended in the selected solvents (50 volumes; 500 µl) with stirring at 40°C. HCl (1.1 equivalents; […] in THF) was added, and the temperature was maintained for 30 minutes. […] The experiments were left cycling for further three days. […] Table 2. Results of HCl salt screen from 20 different solvents
Formula V free base (ca. 30 mg) was suspended in selected solvents (THF, nitromethane, acetonitrile and MEK; 50 volumes, 1.5 mL) at 50°C with stirring. The corresponding acid (1 equivalent) was added and the samples were stirred for 30 minutes, prior to ramping at 1 °C -min_1 to 25°C. The samples were placed in a shaker and subjected to heating/cooling cycles, between room temperature and 50°C, with four hours at each condition. Table 3. Input materials used for the salt screen
Further solvent (25 volumes) was added, and the suspensions were allowed to cycle for four more days. […] The samples were stored in a shaker and subjected to heating/cooling cycles, between room temperature and 50°C, with four hours at each condition for one week. […] Water (10% for MeCN, and 5% for THF, MEK and nitromethane, based on ca. 1.5 mL solvent) was added and the samples were cycled for a further 5 days. […] Table 4. XRPD results from the salt screen in acetonitrile.
An aqueous screen was performed. […] Table 11. Aqueous salt screen
The preparation of salts was conducted by dissolution in concentrated aqueous inorganic acids followed by precipitation with THF. Two procedures were performed, on 10 mg or 50 mg scale, investigating the effect of the order of addition of THF on the product produced.
Procedure A: Formula V free base (ca. 10 mg) was dissolved in the corresponding concentrated acid (50 µl) with stirring at room temperature and was added dropwise over THF (500 µl). Samples using HBr and HCl yielded solids and were shaken for 10 minutes and the solid was vacuum filtered, and dried under suction. H3PO4 yielded a solution that was subjected to heating/cooling cycles between room temperature and 50°C, four hours under each condition for 7 days. Procedure B: Formula V free base (ca. 50 mg) was dissolved in the corresponding concentrated acids (250 µl) with stirring at room temperature. THF (2.5 mL) was added dropwise to the solutions, and precipitation started. The samples were shaken for 30 minutes before being placed at 2-8°C for ca. 16 hours. HBr and HCl produced solids, which were vacuum filtered, washed with THF, dried under suction and under vacuum at 40°C for 16 hours. Table 13. Results from the salt screen from concentrated aqueous acids

[2] = Solid form stability of forms of compound of formula (IV) (Temperature / Humidity Controlled XRPD, storage, suspension); format: physicochemical
Procedure: The term"XRPD" denotes the analytical method of X-Ray Powder Diffraction. XRPD patterns were recorded at ambient conditions in transmission geometry with a STOE STADI P diffractometer (Cu K alpha radiation source, primary monochromator, position sensitive detector, angular range 3° to 42° 2Theta, approximately 60 minutes total measurement time). The repeatability of the angular values is in the range of 2Theta ±0.2°. The term "approximately" given in combination with an angular value denotes the repeatability which is in the range of 2Theta ±0.2°. The samples were prepared and analyzed without further processing (e.g. grinding or sieving) of the substance. The relative XRPD peak intensity is dependent upon many factors such as structure factor, temperature factor, crystallinity, polarization factor, multiplicity, and Lorentz factor. Relative intensities may vary considerably from one measurement to another due to preferred orientation effects. Humidity Controlled XRPD analyses were performed in reflection geometry with a Siemens D5000 Diffractometer (Cu radiation source, Ni K beta filter, Scintillation detector, angular range 3° to 42° 2Theta, approximately 180 minutes total measurement time per humidity level). The diffractometer is equipped with an MRI (Materials Research Instruments) humidity chamber. The humidity within the chamber is adjusted with an ANSYCO humidity controller (SYCOS H-HOT). For single crystal structure analysis a single crystal sample was mounted in a nylon loop on a goniometer and measured at ambient conditions. Alternatively, the crystal was cooled in a nitrogen stream during measurement. Data were collected on a GEMINI R Ultra diffractometer from Oxford Diffraction. Cu-radiation of 1.54 A wavelength was used for data collection. Data was processed with the Oxford Diffraction CRYSALIS software. The crystal structure was solved and refined with standard crystallographic software. In this case the program ShelXTL from Bruker AXS (Karlsruhe) was used. The abbreviation "FWHM" denotes the full width at half maximum, which is a width of a peak (e.g. appearing in a spectrum, particularly in an XRPD pattern) at its half height. The term "sharp Bragg diffraction peak" in connection with X-ray diffraction patterns denotes a peak which is observed if Bragg' s law of diffraction is fulfilled. Generally, the FWHM of a sharp Bragg diffraction peak is less than 0.5° 2-theta. The term "amorphous halo" in connection with X-ray diffraction patterns denotes an approximately bell- shaped diffraction maximum in the X-ray powder diffraction pattern of an amorphous material. The FWHM of an amorphous halo is on principle larger than the FWHM of the peak of crystalline material. The terms "FTIR" and "IR" denote the analytical method of infrared spectroscopy. The IR-spectra of the samples are recorded as film of a Nujol suspension consisting of approx. 5 mg of sample and approx. 5 mg of Nujol (mineral oil) between two sodium chloride plates (cross section 13 mm) in transmittance with a FTIR- spectrometer. The spectra were recorded in spectral range between 4000 cm"1 and 600 cm"1, resolution 2 cm"1, and 300 coadded scans on a Magna 860 (thermo/Nicolet) equipped with a DTGS detector. The term "Raman" denotes the analytical method of Raman spectroscopy. For recording Raman spectra, the samples were spread on a glass slide. Raman spectra were recorded in the range of 150-3800 cm"1 with an ARAMIS (HoribaJobinYvon) Raman microscope equipped with a Peltier cooled CCD detector, at excitation of 633 nm, a 1200 1/mm grating, a x50 objective and with 3 exposures of 3s, or 7s for weak Raman scatterers. The term "DSC" denotes the analytical method of Differential Scanning Calorimetry. DSC thermograms were recorded using a Mettler-Toledo™ differential scanning calorimeter DSC820, DSC821 or DSC1 with a FRS05 sensor. […]

[3] = salt screen from concentrated aqueous acids, Formula V free base, Procedure A
[4] = salt screen from concentrated aqueous acids, Formula V free base, Procedure B
[5] = HBr salt obtained in the salt screen, Acetonitrile
[6] = HBr salt obtained in the salt screen, THF
[7] = salts from concentrated acids, second Details column (presumably Procedure B), listed as HBr salt
[8] = solvent 1-4-Dioxane (entry -13)
[9] = solvent Acetonitrile (entry -04)
[10] = salts from concentrated acids, second Details column (presumably Procedure B), listed as HCl salt

**Q.** Which “Observations after adda of THF” value [1, 3] does the source give for Cl [HCl] here?
**A.** White suspension

**Q.** And the “Observations after adda of THF” value [1, 4]?
**A.** White suspension

**Q.** What does the source list for Nc1nc2cc(-c3ccc4ncc(C(=O)N5CCOCC5)n4c3)ccc2o1 [{drug5b}, (6-(2-aminobenzo[d]oxazol-5-yl)imidazo[1,2-a]pyridin-3-yl)(morpholino)methanone]?
**A.** Ion Chromatography ([1]; HBr salt from aqueous screen): 0.8 eqs Cl; XRPD (vacuum dried) ([1]; HBr salt from aqueous screen): HBr Pattern 3; Ion Chromatography [1, 5]: 1.1 eqs C 1; XRPD (vacuum dried) [1, 5]: HBr Pattern 1, slight evidence of FB; XRPD (vacuum dried) ([1]; HBr salt obtained in the salt screen, Nitromethane): HBr Pattern 1, slight evidence of FB; Ion Chromatography [1, 6]: 0.8 eqs Cl; XRPD (vacuum dried) [1, 6]: HBr Pattern 1; Ion Chromatography ([1]; HBr salts from concentrated acids, first Details column (presumably Procedure A)): 1.7 eqs Br; Ion Chromatography ([1]; HBr salts from concentrated acids, second Details column (presumably Procedure B)): 1.8 eqs Br; XRPD (air dried) ([1]; salts from concentrated acids, first Details column (presumably Procedure A), listed as HBr salt): HBr Pattern 2; XRPD (air dried) [1, 7]: HBr Pattern 4; XRPD (vacuum dried) [1, 7]: HBr Pattern 4; also recorded: Slight changes, more peaks

**Q.** With O=P(O)(O)O [Compound H3PO4] as the molecule, how does the Maturation [1, 3] read?
**A.** Oil

**Q.** And the “Observations after adda of THF” value [1, 3]?
**A.** Solution

**Q.** And the “Observations after adda of THF” value [1, 4]?
**A.** Oil

**Q.** Which “Observations after adda of THF” value [1, 3] does the source give for Br [HBr] here?
**A.** While suspension

**Q.** What about the “Observations after adda of THF” value [1, 4] of the same molecule?
**A.** White suspension

**Q.** What does the source list for Nc1nc2cc(-c3ccc4ncc(C(=O)N5CCOCC5)n4c3)ccc2o1 [compound of Formula V, (6-(2-aminobenzo[d]oxazol-5-yl)imidazo[1,2-a]pyridin-3-yl)(morpholino)methanone]?
**A.** XRPD post 1 day maturation [1, 8]: New peaks free base (loss of crystallinity); XRPD post 4 days maturation [1, 8]: Amorphous; XRPD post 1 day maturation ([1]; solvent Acetone (entry -05)): New peaks + free base; XRPD post 4 days maturation ([1]; solvent Acetone (entry -05)): Free base; XRPD post 1 day maturation [1, 9]: New peaks + free base; XRPD post 4 days maturation [1, 9]: HCl Pattern 1; XRPD post 1 day maturation ([1]; solvent BuOAc (entry -16)): New peaks + free base (loss of crystallinity); XRPD post 4 days maturation ([1]; solvent BuOAc (entry -16)): New peaks + free base (loss of crystallinity); XRPD post 1 day maturation ([1]; solvent DCM (entry -17)): New peaks + free base (loss of crystallinity); XRPD post 4 days maturation ([1]; solvent DCM (entry -17)): New peaks + free base (loss of crystallinity); XRPD post 1 day maturation ([1]; solvent DIPE (entry -10)): New peaks + free base; XRPD post 4 days maturation ([1]; solvent DIPE (entry -10)): New peaks + free base; XRPD post 1 day maturation ([1]; solvent EtOAc (entry -08)): New peaks + free base (loss of crystallinity); XRPD post 4 days maturation ([1]; solvent EtOAc (entry -08)): New peaks + free base; XRPD post 1 day maturation ([1]; solvent Ethanol (entry -02)): New peaks + free base (loss of crystallinity); XRPD post 4 days maturation ([1]; solvent Ethanol (entry -02)): Amorphous; XRPD post 1 day maturation ([1]; solvent IPA (entry -03)): New peaks + free base (loss of crystallinity); XRPD post 4 days maturation ([1]; solvent IPA (entry -03)): Amorphous; XRPD post 1 day maturation ([1]; solvent IPAc (entry -09)): New peaks + free base (loss of crystallinity); XRPD post 4 days maturation ([1]; solvent IPAc (entry -09)): New peaks + free base; XRPD post 1 day maturation ([1]; solvent MEK (entry -06)): New peaks + free base; XRPD post 4 days maturation ([1]; solvent MEK (entry -06)): HCl Pattern 1; XRPD post 1 day maturation ([1]; solvent MIBK (entry -07)): New peaks + free base; XRPD post 4 days maturation ([1]; solvent MIBK (entry -07)): New peaks + free base; XRPD post 1 day maturation ([1]; solvent MeNO2 (entry -14)): HCl Pattern I; XRPD post 1 day maturation ([1]; solvent Methanol (entry -01)): New peaks + free base (loss of crystallinity); XRPD post 4 days maturation ([1]; solvent Methanol (entry -01)): Loss of crystallinity; XRPD post 1 day maturation ([1]; solvent TBME (entry -11)): New peaks + free base; XRPD post 4 days maturation ([1]; solvent TBME (entry -11)): New peaks + free base; XRPD post 1 day maturation ([1]; solvent THF (entry -12)): New peaks + free base (loss of crystallinity); XRPD post 4 days maturation ([1]; solvent THF (entry -12)): HCl Pattern 1; XRPD post 1 day maturation ([1]; solvent Toluene (entry -15)): New peaks + free base; XRPD post 4 days maturation ([1]; solvent Toluene (entry -15)): New peaks + free base; XRPD post 1 day maturation ([1]; solvent tBuOH (entry -18)): New peaks + free base; XRPD post 4 days maturation ([1]; solvent tBuOH (entry -18)): Free base

**Q.** Which results are given for Nc1nc2cc(-c3ccc4ncc(C(=O)N5CCOCC5)n4c3)ccc2o1 [{drug5a}, (6-(2-aminobenzo[d]oxazol-5-yl)imidazo[1,2-a]pyridin-3-yl)(morpholino)methanone]?
**A.** Ion Chromatography ([1]; HCl salt from nitromethane): 0.8 eqs Cl; XRPD (vacuum dried) ([1]; HCl salt from nitromethane): HCl Pattern 1; Ion Chromatography ([1]; HCl salts from concentrated acids, first Details column (presumably Procedure A)): 1.6 eqs Cl; Ion Chromatography ([1]; HCl salts from concentrated acids, second Details column (presumably Procedure B)): 1.7 eqs Cl; XRPD (air dried) ([1]; salts from concentrated acids, first Details column (presumably Procedure A), listed as HCl salt): HCl Pattern 2; XRPD (air dried) [1, 10]: HCl Pattern 2; XRPD (vacuum dried) [1, 10]: HCl Pattern 2; also recorded: Slight changes, more peaks

**Q.** Which “thermodynamic stability of the solid form” value [2] does the source give for Cc1onc(-c2ccc(F)cc2)c1COc1ccc(C(=O)N2CCS(=O)(=O)CC2)cn1 [Form A ({drug4a}), (1,1-dioxo-1lambda6-thiomorpholin-4-yl)-{6-[3-(4-fluoro-phenyl)-5-methyl-isoxazol-4-ylmethoxy]-pyridin-3-yl]-methanone] here?
**A.** metastable polymorph

**Q.** And the “solid form changes at elevated temperature” value ([2]; Temperature Controlled XRPD)?
**A.** do not show solid form changes
